{"source": "patent US20250064886A1", "about": "“CARDIOVASCULAR AND CEREBROVASCULAR DRUG AND USE THEREOF” (HANGZHOU ADAMERCK PHARMLABS INC., priority 2021, published 2025)", "key": {"tryptase": {"tested_on": "tryptase", "assay": "Sensitization risk: tryptase expression (OD, BAPNA) in zebrafish (Example 2)", "type": "in vivo", "details": "for Sensitization risk, in words: 500 ng/tail; for Relative sensitization risk (compared with positive control group) / Sensitization risk (%) / Absorbance value (OD value), parallel wells 1-6 / Absorbance value (OD value), mean: 500 ng/tail intravenous; for Absorbance value (OD value), parallel wells 1-6: 28° C. 1 day, single wells; for Absorbance value (OD value), mean: mean of 6 wells", "procedure": "Experimental method: 2 dpf wild type AB strain zebrafish were randomly selected and placed in a 24-well plate, with each group 6 parallel wells and 10 zebrafish per well. The zebrafish were injected intravenously with samples at a dose of 500 ng/tail and the positive control “C48/80” at a concentration of 1.5 μg/mL, while normal control group was set up. Each well has a capacity of 1 mL.\nAll experimental groups were given BAPNA by dissolving it in the water. After treatment at 28° C. for 1 day, the liquid was transferred to 96-well plates with 200 μL/well, and the relative absorbance values (OD values) of the expression levels of tryptase in each experimental group were detected using an microplate reader, and the results of the statistical analysis of the OD values were used to evaluate the risk of sensitization by sample. Statistical results were expressed as mean±SE.\nStatistical analysis was performed using SPSS software, and p<0.05 indicates significant differences."}, "[1]": {"tested_on": "vascular endothelial injury induced thrombosis model in zebrafish", "assay": "Preventative effect on vascular endothelial injury induced thrombosis, ponatinib zebrafish model (Example 1)", "type": "in vivo", "details": "4.00 ng/tail injected", "procedure": "Experimental method: 420 tails of 5 dpf wild type AB strain zebrafish were randomly selected and placed in a six-well plate, with 30 fish per well (experimental group). The fish were injected with compound (1), compound (2), compound (3), compound (4), compound (5), compound (6), compound (7), compound (8), compound (9), compound (10), and compound (11) (structural formula shown in Table 1) at a dose of 4.00 ng/tail, with positive control drug acetylsalicylic acid being administered by dissolving it in water at a concentration of 30.0 µg/mL. Normal control group (i.e. zebrafish treated with standard diluted water) and model control group were set up, with a capacity of 3 mL per well (experimental group). Except for normal control group, the remaining experimental groups were all given Punatinib by dissolving it in water to induce vascular endothelial injury induced thrombosis model in zebrafish. The zebrafish were stained with o-dianisidine after co-treatment with ponatinib and samples for a period of time under incubation conditions at 28° C.\nAfter staining, 10 zebrafish in each group were randomly selected and photographed under the microscope, and the intensity of cardiac erythrocyte staining in zebrafish was analyzed using NIS-Elements D 3.20 advanced image-processing software, and the samples were evaluated for the preventative effect on vascular endothelial injury induced thrombosis by the statistical results of cardiac erythrocyte staining intensity.\nThe preventative effect on thrombosis is calculated as follows: […]\nStatistical analysis was performed using SPSS software, and p<0.05 indicates significant differences"}, "[2]": {"tested_on": "cerebral ischemic injury in rats caused by autologous thrombus and thrombin", "assay": "Ischemic brain injury in rats caused by autologous thrombus and thrombin (Example 6)", "type": "in vivo, rat", "procedure": "The drug was administered once by slow tail vein injection (1 ml per minute) 2 h after modeling, and the decrease in blood flow was monitored after the injection of thrombin, and 120 min after the administration of the drug. Neurobehavioral scoring was performed to determine the neurological function of rats after 24 h. The cerebral infarction rate and cerebral water content of rats were determined using 2,3,5-triphenyltetrazolium chloride (TTC) staining method, and the pathological damage of the brain of rats administered with drug 2 h after cerebral ischemia was observed by hematoxylin-eosin (HE) staining."}, "[3]": {"tested_on": "vascular endothelial injury induced thrombosis model in zebrafish", "assay": "Preventative effect on vascular endothelial injury induced thrombosis, ponatinib zebrafish model (Example 1)", "type": "in vivo", "details": "30.0 μg/mL dissolved in water"}, "[4]": {"tested_on": "vascular endothelial-injury thrombosis model in zebrafish", "assay": "Preventative effect of compound (1) on vascular endothelial injury induced thrombosis in zebrafish (Example 3)", "type": "in vivo", "details": "30 μg/mL in water", "procedure": "Experimental method: Wild-type AB strain zebrafish were treated with 4 μg/mL punatinib for 18 h to establish vascular endothelial-injury thrombosis model in zebrafish. 150 of 5 dpf wild-type AB strain zebrafish were randomly selected and placed in six-well plates with 30 fish per well (experimental group). The zebrafish were injected with compound (1) at a dose of 2.06 ng/tail, and 6.18 ng/tail, and the positive control drug acetylsalicylic acid was given by dissolving it in water with a concentration of 30 µg/mL, while the normal control group (i.e., zebrafish treated with standard dilution water) and the model control group were set up, and the volume of each well (experimental group) was 3 mL. Except for normal control group, the remaining experimental groups were all given Punatinib by dissolving it in water to induce vascular endothelial injury thrombosis model in zebrafish. The zebrafish were co-treated with compound (1) and punatinib for a period of time under incubation condition at 28° C., and then stained with o-dianisidine. After staining, 10 zebrafish were randomly selected from each group and photographed under the microscope. The intensity of cardiac erythrocyte staining in zebrafish was analyzed using NIS-Elements D 3.10 advanced image-processing software, and the preventative effect of compound (I) on vascular endothelial injury thrombosis was evaluated based on the statistical results of cardiac erythrocyte staining intensity. The preventative effect on thrombosis is calculated as follows: […]\nStatistical analysis were performed using Analysis of Variance and Dunnett's t-test, and p<0.05 indicates a significant difference, providing a representative experimental plot."}, "[5]": {"tested_on": "arteriovenous bypass thrombosis in rats", "assay": "Arteriovenous bypass thrombosis in rats (Example 4)", "type": "in vivo, rat", "procedure": "Grouping: Divided into 5 groups, with 10 animals in each group. The model control group was given with solvent, and the test drug compound (1) and the positive control were given intravenously once a day for consecutive 3 d. The modeling started 30 min after the last dose.\nModel preparation: 50 SD male rats were anesthetized with sodium pentobarbital at a dose of 60 mg/kg via ip. The rat was fixed in the supine position, and the skin was incised at the midline of the neck; the fascia and muscle tissues were separated, the left common carotid artery and the right external jugular vein were dissociated, and the arterio-venous (A-V) bypass surgery was performed using the polyethylene tubing with a built-in thread. The arterial clip was used to clamp the proximal end of the carotid artery, and one end of the polyethylene tubing was inserted into the artery, and another end was inserted into the vein, thereby completing the bypass surgery. 30 minutes after the last dose, the arterial clip was opened, and blood flowed from the left common carotid artery to the right external jugular vein through the bypass tubing, and the blood flow formed a bypass circulation, and the thrombus was taken out 15 min later.\n(§1) Detection index: the blood flow was open after 15 min, the thread was taken out, the residual liquid was sucked dry, the thread attached with thrombus was weighed and the wet weight of thrombus was calculated; the dry weight of thrombus was weighed and calculated after bake-drying in the oven at 50° C. Thrombosis inhibition rate was calculated. Tails were clipped at the end of the experiment to detect bleeding time."}, "[6]": {"tested_on": "rats with focal cerebral ischemia (MCAO)/reperfusion", "assay": "Preventative administration, cerebral ischemia-reperfusion injury MCAO/R in rats (Example 5)", "type": "in vivo, rat", "procedure": "Experimental method: SD rats were randomly divided into six groups, i.e., pseudosurgery group, model control group, positive control drug ozagre (6 mg/kg) group, and administration drug compound (1) high-dose (67.5 mg/kg) group, medium-dose (22.5 mg/kg) group, and low-dose (7.5 mg/kg) group. The administration group was pre-administered via tail vein injection, while the pseudosurgery group and model control group were given equal volumes of physiological saline once a day for 3 consecutive days. 10 minutes after the last administration, a rat MCAO/R model was established and performed reperfusion 2 hours post ischemia. 24 hours after MCAO reperfusion, the neurobehavioral scores of rats were performed to determine their neurological function; the cerebral infarction rate and cerebral water content in rats were determined using 2,3,5-triphenyltetrazolium chloride (TTC) staining method."}, "rats": {"tested_on": "rats", "assay": "Bleeding time in rats, tail clipping (Example 4)", "type": "in vivo, rat", "procedure": "as §1, with “Grouping: Divided into 5 groups, with 10 animals in each group. […] The modeling started 30 min after the last dose. Detection” for “Detection”"}, "[7]": {"details": "16 mg/kg i.v. once a day 3 d, in g (unit assumed)"}}, "note": "Values joined by “and” are separate entries in the source; they are usually repeats but may differ in a detail not shown here. Equal entries are not always repeated.", "data": [{"compound": "OCC1OC2OC3C(CO)OC(OC4C(CO)OC(OC5C(CO)OC(OC6C(CO)OC(OC7C(CO)OC(OC8C(CO)OC(OC9C(CO)OC(OC1C(O)C2O)C(O)C9O)C(O)C8O)C(O)C7O)C(O)C6O)C(O)C5O)C(O)C4O)C(O)C3O", "note": "(centres unmarked) [Compound (10)]", "values": [{"measurement": "Sensitization risk, in words", "setting": "tryptase", "value": "low sensitization risk"}, {"measurement": "Relative sensitization risk (compared with positive control group)", "setting": "tryptase", "value": 33, "unit": "%"}, {"measurement": "Sensitization risk (%)", "setting": "tryptase", "value": 27.8, "unit": "%"}, {"measurement": "Absorbance value (OD value), parallel wells 1-6", "setting": "tryptase", "value": "0.07115 and 0.06947 and 0.06795 and 0.07585 and 0.06445"}, {"measurement": "Absorbance value (OD value), mean", "setting": "tryptase", "value": 0.069}, {"measurement": "Preventative effect on thrombosis (%)", "setting": "[1]", "value": 64, "unit": "%"}, {"measurement": "Cardiac erythrocyte staining intensity (pixels, mean ± SE)", "setting": "[1]; n = 10", "value": "4326 ± 383", "unit": "pixels"}, {"measurement": "Cardiac erythrocyte staining intensity (pixels, mean ± SE)", "setting": "[1]; n = 10, listed as compound (10)", "value": 4326, "unit": "pixels"}]}, {"compound": "Urokinase [reference compound]", "values": [{"measurement": "Cerebral blood flow: Percentage decrease after injection of thrombin (%)", "setting": "[2]; 5000 U/kg group, value before administration", "value": "50.10 ± 7.94", "unit": "%"}, {"measurement": "Cerebral infarction rate (%)", "setting": "[2]; 5000 U/kg i.v.", "value": "9.72 ± 9.89", "unit": "%"}, {"measurement": "Cerebral water content (%)", "setting": "[2]; 5000 U/kg i.v.", "value": "79.78 ± 0.72", "unit": "%"}, {"measurement": "Cerebral blood flow: Percentage decrease two hours after administration (%)", "setting": "[2]; 5000 U/kg i.v. once 2 h after modeling", "value": "37.12 ± 4.49", "unit": "%"}, {"measurement": "Pathological damage score", "setting": "[2]; 5000 U/kg i.v., HE staining", "value": "1.75 ± 0.86"}, {"measurement": "Behavioral score", "setting": "[2]; 5000 U/kg i.v., after 24 h", "value": "1.60 ± 0.70"}]}, {"compound": "CC(=O)Oc1ccccc1C(=O)O", "note": "[Acetylsalicylic acid, acetylsalicylic acid, reference compound]", "values": [{"measurement": "Preventative effect on thrombosis (%)", "setting": "[3]", "value": 101, "unit": "%"}, {"measurement": "Cardiac erythrocyte staining intensity (pixels, mean ± SE)", "setting": "[3]; n = 10", "value": "5345 ± 228", "unit": "pixels"}, {"measurement": "Thromboprophylactic effect (%)", "setting": "[4]", "value": 85, "unit": "%"}, {"measurement": "Cardiac erythrocyte staining intensity (pixels, mean ± SE)", "setting": "[4]; n = 10", "value": "4655 ± 136", "unit": "pixels"}]}, {"compound": "O=C(O)/C=C/c1ccc(Cn2ccnc2)cc1", "note": "[Ozagre, ozagrel, reference compound]", "values": [{"measurement": "Dry weight inhibition rate (%)", "setting": "[5]; 16 mg/kg i.v.", "value": 34.1, "unit": "%"}, {"measurement": "Wet weight inhibition rate (%)", "setting": "[5]; 16 mg/kg i.v.", "value": 34, "unit": "%"}, {"measurement": "Dry weight of thrombus", "setting": "[5]; [7]", "value": "0.0054 ± 0.0018"}, {"measurement": "Wet weight of thrombus", "setting": "[5]; [7]", "value": "0.0208 ± 0.0041"}, {"measurement": "Cerebral infarction rate (%)", "setting": "[6]; 6 mg/kg tail vein, once a day 3 days before MCAO/R, 24 h after reperfusion, mean ± SD, n = 8", "value": "14.39 ± 8.14", "unit": "%"}, {"measurement": "Behavioral score", "setting": "[6]; 6 mg/kg, preventative", "value": "1.50 ± 0.56"}, {"measurement": "Cerebral water content (%)", "setting": "[6]; 6 mg/kg, preventative, tail vein 3 days", "value": "78.42 ± 3.73", "unit": "%"}, {"measurement": "Bleeding time", "setting": "rats; 16 mg/kg i.v.", "value": "740.8 ± 224", "unit": "s"}, {"measurement": "Effect on the bleeding time in rats, in words", "setting": "rats; intravenous, compared with model control group", "value": "significantly prolonged"}]}, {"compound": "CC(=O)N[C@@H](CSCC1OC2OC3C(CSC[C@H](NC(C)=O)C(=O)[O-])OC(OC4C(CSC[C@H](NC(C)=O)C(=O)[O-])OC(OC5C(CSC[C@H](NC(C)=O)C(=O)[O-])OC(OC6C(CSC[C@H](NC(C)=O)C(=O)[O-])OC(OC7C(CSC[C@H](NC(C)=O)C(=O)[O-])OC(OC8C(CSC[C@H](NC(C)=O)C(=O)[O-])OC(OC9C(CSC[C@H](NC(C)=O)C(=O)[O-])OC(OC1C(O)C2O)C(O)C9O)C(O)C8O)C(O)C7O)C(O)C6O)C(O)C5O)C(O)C4O)C(O)C3O)C(=O)[O-].[Na+].[Na+].[Na+].[Na+].[Na+].[Na+].[Na+].[Na+]", "note": "(some centres unmarked) [Compound (2)]", "values": [{"measurement": "Sensitization risk, in words", "setting": "tryptase", "value": "no or substantially no sensitization risk"}, {"measurement": "Relative sensitization risk (compared with positive control group)", "setting": "tryptase", "value": "−4", "unit": "%"}, {"measurement": "Sensitization risk (%)", "setting": "tryptase", "value": "−3.7", "unit": "%"}, {"measurement": "Absorbance value (OD value), parallel wells 1-6", "setting": "tryptase", "value": "0.05655 and 0.05255 and 0.04865 and 0.04785 and 0.05085 and 0.05405"}, {"measurement": "Absorbance value (OD value), mean", "setting": "tryptase", "value": 0.052}, {"measurement": "Preventative effect on thrombosis (%)", "setting": "[1]", "value": 39, "unit": "%"}, {"measurement": "Cardiac erythrocyte staining intensity (pixels, mean ± SE)", "setting": "[1]; n = 10", "value": "3655 ± 318", "unit": "pixels"}, {"measurement": "Cardiac erythrocyte staining intensity (pixels, mean ± SE)", "setting": "[1]; n = 10, listed as compound (2)", "value": 3655, "unit": "pixels"}]}]}
